# Entries after “also recorded” stand apart in the source; their conditions may differ.
# Key:
# [1] = system: dorsal root ganglion neurons; assay: Cisplatin toxicity in cultured dorsal root ganglion neurons, survival rate by acid phosphatase activity; assay type: cell-based, rat
# Protocol: The dorsal root ganglion neurons were obtained from rat fetuses (Wistar rats; E15; Elevage Janvier, Le Genest St Isle). They were dissected and incubated in trypsin 1× (Gibco; Life Technologies, Cergy-Pontoise, France) for 30 min at 37° C. The reaction was stopped by addition of free Hanks balanced salt solution containing calcium and magnesium; (HBSS^+; Gibco) added with 10% of fetal bovine serum (FBS; Gibco) and 0.5 mg/ml DNAse I (Boehringer Mannheim, Meylan, France). The suspension was triturated with a 10-ml pipette and using a needle seringe. After centrifugation, the dissociated cells were resuspended in DMEM containing 10% FBS, 2% of chick embryos extract (Gibco), 1% antibiotics (Gibco) and NGF (Tebu, Le Perray en Yvelines, France) 3 ng/ml final.
# Viable cells were counted and seeded at ±50,000 cells /well in 96 well-plates (Nunclon, Life Technologies) coated with poly-L-lysine (0.01 mg/ml, Sigma). Cells were maintained in a humidified incubator at 37° C. in 5% CO2-95% air atmosphere.
# After 24 h, the culture medium was completed with anti-mitotic compounds (5-fluoro-5′-deoxyuridine and cytosine β-D-arabinofuranoside) and uridine all 10^−5M final. This treatment is aimed at eliminating contaminating fibroblasts and inhibiting the proliferation of Schwann cells.
# Cultures were rinsed 48 hrs later (medium without any growth factors) and medium was replaced with fresh medium (200 μl /well) containing cisplatin (3.5 ng/ml; Sigma) added or not with the reference or test compounds.
# After 48 h of intoxication, survival rates were measured using an acid phosphatase enzymatic activity assay.
# Acid phosphatase activity was measured according to a previously described method (Ueda et al.; 1994). After removal of the culture medium, wells were rinsed twice with PBS (Life Technologies) and incubated with 100 μl of buffer containing 0.1 M sodium acetate (pH5.5), 0.1% Triton X100 (Sigma) and 10 mM p-nitrophenyl phosphate (Sigma) 1 h at 37° C./5% CO2. Reaction was stopped by addition of 10 μl of 1N NaOH (LPCR, Strasbourg, France). Enzyme activity was measured at 405 nm in a microplate reader (Labsystem, France).
# Acid phosphatase activity is proportional to the amount of living cells. The results were expressed as percentage O.D. as compared to control conditions (same rinsing and medium replacements, but no intoxication and no treatment with either NGF, riluzol or the test compounds).
# Caudal nerve = assay: Vincristine-induced neuropathy, sensitive nerve conduction velocity (SNCV); assay type: in vivo, Dark Agouti rats
# Protocol: (§1) Animals received vincristine 0.15 mg/ml (IP) per day with the following timing: 5 days of intoxication followed with 2 days without vincristine injection and a new period of 5 days of intox followed with 2 days no intoxication and 2 other days of intoxication with vincristine followed by a 3 week recovery period. The test compound was administered daily from the first day of vincristine injection to the end of the experiments
# (§2) Subjects used were 65 female Dark Agouti rats (200-250 g) (n=13 per group). Five groups were used: (1) a vehicle control group; (2) a vincristine-vehicle group;: (3) a vicristine+AIT-082 3 mg/kg IP group; (4) a vicristine+AIT-082 10 mg/kg IP group; and (5) a vicristine+AIT-082 30 mg/kg IP group.
# (§3) Electrophysiological Measurements. Electrophysiological recordings were performed once a week using a Neuromatic 2000M electromyographical apparatus (Dantec, France). EMG were performed under Ketamine anesthesia (Imalgène 500®, Merieux, France).
# (§4) The measured parameters were: the sensitive nerve conduction velocity (SNCV), the amplitude and the latency compound muscle action potential (CMAP).
# Sensitive Nerve Conduction Velocity. Skin electrodes were used. Caudal nerve was stimulated with a series of 20 pulses during 0.2 ms at a supramaximal intensity. The mean of 20 stimulations is included for statistical analysis.
# Drug Administration. The test compound was administered daily by the i.p. route from the first day of intoxication with the vincristine to the end of the experiments.
# [2] = system: gastrocnemius muscle after stimulation of the sciatic nerve; assay: Vincristine-induced neuropathy, EMG amplitude (compound muscle action potential); assay type: in vivo, Dark Agouti rats
# Protocol: as §1, §2, §3, §4
# Compound Muscle Action Potential and Distal Latency. CPAM was measured in gastrocnemius muscle after stimulation of the sciatic nerve. […] The amplitude (mV) and the latency of the response (ms) are measured. […]
# sciatic nerve = assay: Vincristine-induced neuropathy, morphometric analysis of sciatic nerve; assay type: in vivo, Dark Agouti rats; settings: end of the treatment periods
# Protocol: as §1, §2
# Morphometric Analysis. The morphometric analysis was performed on 3 animals per group on sciatic nerve. It includes the measurements of various parameters according to the following procedure: […]
# (3) Morphometric analysis: Sections were observed using an optical microscope (Nikon) and morphometric analysis were performed with a semi-automated digital image analysis software (Morphonerf, Alcatel). Per slice, 4 fields were analyzed, the number of myelinated fibers, density of fibers, diameter of fibers, thickness of myelin sheath, surface of myelin sheath and G factor.
# BDNF = BDNF content in spinal cord by ELISA; assay type: in vivo, rat; settings: in drinking water for 7 days
# Protocol: In vivo Effects on Expression and Secretion of Nerve Growth Factors: In attempt to further explore the effects of AIT-082 that could be beneficial for chemotherapy-induced neuropathy, additional studies were conducted on dose-related effects on BDNF levels in the spinal cord. In these studies, AIT-082 was administered in drinking water for 7 days and BDNF content was measured by ELISA assay.
# [3] = system: peripheral nerve sprouting in the skin; assay: Peripheral (collateral) nerve sprouting in the skin; assay type: in vivo; settings: systemically administered, skin of adult rats
# From the text: (§5) The growth of such nerve tissue is evoked and maintained entirely by the increased levels of NGF in adjacent denervated skin.
# axonal regeneration = assay: Axonal regeneration after nerve crush; settings: in vivo
# From the text: (§6) More specifically, as detailed below in the Example, systematically administered AIT-082 closely mimics the effects both of increased levels of endogenous NGF, and of exogenous NGF. […] The growth of such nerve tissue is evoked and maintained entirely by the increased levels of NGF in adjacent denervated skin.
# [4] = Induction of hyperalgesia; parameters: species or system adult rats; settings: rat, in vivo
# From the text: as §5
# NGF [5] = assay: Endogenous NGF levels in skin; parameters: species or system adult rats; settings: rat, in vivo
# From the text: as §6
# [6] = Clinical trials, safety in patients; assay type: in vivo; settings: over 1400 patients
# From the text: The objectives of the studies described in this application are to evaluate AIT-082 and related analogues for their potential utility in the treatment of neuropathies associated with oncolytic therapies. The prototypic compound, AIT-082, is currently in Phase 2 clinical trials for Alzheimer's disease (AD) and has been proven safe in over 1400 patients. Its preclinical pharmacological effects include neuroprotection against excitotoxicity, induction of the synthesis and secretion of neurotrophic and pleiotrophic factors, neuroregenerative effects and proliferative effects on neural progenitor cells. The effects of AIT-082 are unlike any product that has been approved or is currently under evaluation for neuropathies associated with oncolytic agents. AIT-082 and its second generation analogues may arrest or retard neurodegenerative processes, promote neuroregeneration and provide symptomatic relief for cancer patients with neuropathies or at high risk of developing neuropathies.
# NGF [7] = settings: rat astrocyte cultures; cited from earlier work
# [8] = system: basic fibroblast growth factor (bFGF); settings: rat astrocyte cultures; cited from earlier work
# neurotrophin 3 (NT-3) = settings: rat astrocyte cultures; cited from earlier work
# NGF [9] = settings: astrocytes; cited from earlier work
# TGF = settings: astrocytes; cited from earlier work
# S 100 = settings: astrocytes; cited from earlier work
# [10] = Vincristine intoxication in rats, body weight; assay type: in vivo, Dark Agouti rats; settings: repetitive dosing IP, days 11-19 and 22-31; FIG. 2
# Protocol: Animals received vincristine 0.15 mg/ml (IP) per day with the following timing: 5 days of intoxication followed with 2 days without vincristine injection and a new period of 5 days of intox followed with 2 days no intoxication and 2 other days of intoxication with vincristine followed by a 3 week recovery period. The test compound was administered daily from the first day of vincristine injection to the end of the experiments Subjects used were 65 female Dark Agouti rats (200-250 g) (n=13 per group). Five groups were used: (1) a vehicle control group; […] (3) a […]-082 3 mg/kg IP group; (4) a […]-082 10 mg/kg IP group; and (5) a […]-082 30 mg/kg IP group. Behavioral Measurements. The general health and weight of animals were checked every day. Sensorimotor tests were performed twice a week during 6 week study, starting one week before beginning of intoxication (baseline). Drug Administration. The test compound was administered daily by the i.p. route from the first day of intoxication with the vincristine to the end of the experiments.
# [11] = prevention of cisplatin toxicity in DRG cells
structure (smiles),measurement,setting,value
O=C(CCn1cnc2c(=O)[nH]cnc21)NCCCN1CCCC1=O [AIT-034],effect on survival,[1]; all concentrations (0.01-100 μM),ineffective
"O=C(CCn1cnc2c(=O)[nH]cnc21)Nc1ccc(C(=O)O)cc1 [AIT-082, N-4-carboxyphenyl-3-(6-oxohydropurin-9-yl) propanamide]",survival compared to cisplatin alone,"[1]; 1 μM, cisplatin intoxication 48 h, FIG. 1",significantly increased survival
same,effect on survival at higher doses,[1]; doses higher than 1 μM,diminished progressively
same,protection against cisplatin induced neurotoxicity,"[1]; in vitro model, discussion summary",statistically significant protection
same,effect compared with 5 ng/ml of NGF,[1]; [11],greater effect
same,potency relative to riluzole,[1]; [11],10 times
same,sensory nerve conduction velocity,"Caudal nerve; day 17 (intoxication phase) and day 31 (recovery phase), 3-30 mg/kg IP",significant and dose-related changes
same,severity of vincristine induced changes in sensory nerve conduction velocity,Caudal nerve; discussion summary,reduced the severity
same,rate of recovery after the termination of vincristine therapy,"Caudal nerve; discussion summary, SNCV and electromyographic responses",improved the rate of recovery
same,EMG amplitude,"[2]; days 17 and 23 (intoxication phase), days 31 and 38 (recovery phase), 3-30 mg/kg IP",significant and dose-related changes
same,severity of vincristine induced changes in electromyographic responses,[2]; discussion summary,reduced the severity
same,number of myelinated nerve fibers in sciatic nerve biopsies versus vincristine alone,sciatic nerve,greater numbers of myelinated nerve fibers
same,BDNF levels in the spinal cord,BDNF,significant dose-related increases
same,peripheral / collateral nerve sprouting,[3],induce peripheral nerve sprouting; also recorded: induces vigorous collateral sprouting
same,axonal regeneration after nerve crush,axonal regeneration,no effect
same,hyperalgesia,[4],without the induction of hyperalgesia; also recorded: did not induce hyperalgesia
same,endogenous NGF levels in skin,NGF [5],up-regulation
same,safety in patients,[6],proven safe
same,production of NGF mRNA,NGF [7],increases the production of mRNAs
same,production of bFGF mRNA,[8],increases the production of mRNAs
same,production of NT-3 mRNA,neurotrophin 3 (NT-3),increases the production of mRNAs
same,secretion of NGF into the culture medium,NGF [9],enhanced the secretion
same,secretion of TGF into the culture medium,TGF,enhanced the secretion
same,secretion of S 100 into the culture medium,S 100,enhanced the secretion
"CC[C@]1(O)C[C@H]2CN(CCc3c([nH]c4ccccc34)[C@@](C(=O)OC)(c3cc4c(cc3OC)N(C=O)[C@H]3[C@@](O)(C(=O)OC)[C@H](OC(C)=O)[C@]5(CC)C=CCN6CC[C@]43[C@@H]65)C2)C1 [Vincristine, vincristine]",body weight compared to day matched vehicle controls,[10],significant reductions in body weight

# Reference: US6630478B2, “Methods for treatment of drug-induced peripheral neuropathy” (NeoTherapeutics, Inc., priority 2000, dated 2003)
